The assay relates to corneal epithelial defect. Nature of the assay: Promoting action on corneal epithelial wound healing after corneal epithelial scraping (Experimental Example 2). Format: in vivo, Japanese white rabbits. The settings on record: rabbit; for ratio of the remaining corneal epithelial defect: mean ± SD, N = 6. How it is done: Male Japanese white rabbits (KITAYAMA LABES Co., Ltd.) were used. The experimental animals were used according to the International Guiding Principles for Biomedical Research involving Animals.
Compound A was used as a test substance. Compound A was dissolved in the following vehicle at 0.0005% or suspended in the following vehicle at 0.005% and used as an instillation.
As a control for the compound A administration group, the above-mentioned vehicle instillation group free of medicament was used.
Animals received intramuscular injection (1 mL/kg) of a Selactal (2% xylazine; Bayer, Ltd.): Ketalar (5% ketamine; DAIICHI SANKYO COMPANY, LIMITED)=1:1 mixture for systemic anesthesia, and oxybuprocaine hydrochloride instillation (Benoxil instillation 0.4%; Santen Pharmaceutical CO., Ltd.) and then the eyeballs were exposed. Using a trephine with a diameter of 10 mm, a mark (diameter 10 mm) was stamped on the corneal epithelium in the central part of the cornea, and the entire corneal epithelial layer within the marked circle was scraped off with a handy rooter under a stereomicroscope. After scraping, the corneal surface was washed with physiological saline (OTSUKA PHARMACEUTICAL FACTORY, INC.), and the corneal epithelial scraping treatment was completed by placing the eyeball back in the orbitae.
Compound A instillation or an instillation vehicle was instilled by 50 μL each time into the treated eye with a micropipette twice a day on the day of corneal epithelial scraping and four times a day from the next day to the completion of the test.
Using the time point when the corneal epithelial scraping was completed in all animals as a test starting time (0 hr), the area of corneal epithelium defect was quantified 40, 48, 56 and 64 hr later, based on which wound healing of the corneal epithelium was evaluated. To be precise, 0.1% fluorescein sodium (Wako Pure Chemical Industries, Ltd.) solution (10 μL) was instilled into the treated eye at each time point, and the anterior ocular segment of the animals was immediately photographed using a slit lamp with a blue filter, whereby the fluorescein-stained corneal epithelial deficient region was recorded. The developed photograph was stored as digital images on a computer, and the area of the fluorescein-stained corneal epithelial defect was measured using an image analysis software (Image-Pro Plus).
The area of the fluorescein-stained corneal epithelial defect measured at each time point was calculated based on the initial value of each animal as 100%, and taken as the ratio of the remaining corneal epithelial defect. The ratio of the remaining corneal epithelial defect at each time point was compared between the vehicle instillation group and compound A instillation group using the t-test. A critical value of less than 5% as a result of the test was judged as significant.

Take `Cc1cc2c(CCc3sc(-c4ccc(C(F)(F)F)cc4)nc3C(C)C)noc2cc1OCC(=O)O` [compound A, [3-[2-[4-isopropyl-2-(4-trifluoromethyl)phenyl-5-thiazolyl]ethyl]-5-methyl-1,2-benzisoxazol-6-yl]oxyacetic acid]: the “ratio of the remaining corneal epithelial defect” value reads like this: (0.0005% instillation, 0 hr (initial value)) 100.0 ± 0.0%; (0.0005% instillation, 40 hr later, initial value = 100%) 24.8 ± 2.7%; (0.0005% instillation, 48 hr later, initial value = 100%) 11.8 ± 2.9 %; (0.0005% instillation, 56 hr later, initial value = 100%) 3.8 ± 2.8%; (0.0005% instillation, 64 hr later, initial value = 100%) 0.8 ± 1.4%; (0.005% instillation, 0 hr (initial value)) 100.0 ± 0.0%. The “ratio of the remaining corneal epithelial defect” value (0.005% instillation, 40 hr later, initial value = 100%) stood at 18.6 ± 8.0 %; the “ratio of the remaining corneal epithelial defect” value (0.005% instillation, 48 hr later, initial value = 100%) amounted to 9.1 ± 6.4 %; the “ratio of the remaining corneal epithelial defect” value (0.005% instillation, 56 hr later, initial value = 100%) was determined as 3.4 ± 3.7%; the “ratio of the remaining corneal epithelial defect” value (0.005% instillation, 64 hr later, initial value = 100%) was 0.9 ± 1.3%. In addition, the “effect on wound healing of corneal epithelial defect (in words)” value (instillation 0.0005% or 0.005%, conclusion of the test) is listed as “promotes wound healing of corneal epithelial defect”.

Source of the values: patent publication US8802705B2, “Pharmaceutical containing PPAR delta agonist” (Senju Pharmaceutical Co., Ltd., priority 2007, dated 2014).
